The values that follow come from paper PMC4841536, “Characterization of the Anti-HCV Activities of the New Cyclophilin Inhibitor STG-175” (PLoS ONE, 2016).

Experiment [1] has as its system HCV GT3a subgenomic replicon S52/SG-Feo (AI). The experiment is described as follows: Luciferase reporter replicon antiviral assay, GT3a. The class given is cell-based. As to conditions: Hepatitis C virus. The procedure: The anti-HCV activity of STG-175 was conducted using a panel of luciferase reporter replicon cell lines including GT1a, GT1b, GT2a, GT3a and GT4a as we described previously. The GT1a subgenomic renilla luciferase reporter replicon H77 RLucP (7) was supplied by Dr. Delaney. The GT1b subgenomic firefly luciferase reporter replicon pFK-I389/NS3-3’ [29] was supplied by Dr. Bartenschlager. The GT1B subgenomic NS3, NS5A and NS5B mutants were created via homologous recombination using the In-Fusion HD Cloning kit (Clontech) as we described previously. The GT2a genomic luciferase reporter replicon Luc-Neo-JFH-1 was generated as previously. The plasmid pFK-Luc-JFH1 was supplied from Drs. […] The CellTiter-Fluor™ Cell Viability Assay is a non-lytic fluorescence assay, which measures the number of live cells. […] Luciferase activity was determined using the Luciferase Assay System (Promega) in a Berthold luminometer. […] Viable cells continuously convert resazurin to resorufin, increasing the overall fluorescence and color of the media surrounding cells.
Fig 2 Anti-HCV activities of STG-175 among GTs. […] Luciferase activity was determined using the Luciferase Assay System in a Berthold luminometer. […] Data are expressed as mean of relative light units and calculated EC50s are presented. […]

The test system of experiment [2] is IL-2 promoter activation in Jurkat T-cell line. The experiment is described as follows: In vitro assay for immunosuppression: IL-2 promoter activation in engineered Jurkat T-cell line (betagalactosidase). The experiment is classed as cell-based. As for the experimental part:
IL-2 promoter activation upon T-cell stimulation was determined using an engineered Jurkat T-cell line, which expresses betagalactosidase when exposed to chemical non-specific factors like […] (PMA) and phytohematogglutinin (PHA) as described previously. DMSO or STG-175 were added together with PMA (10 ng/mL) to 1 million of Jurkat cells (triplicates). Betagalactosidase activity in cell lysates was quantified by fluorescence (460 nm) after 24 h.
Fig 1 Anti-PPIase and immunosuppressive activities of STG-175. A. Structures of cyclophilin inhibitors. Inhibition of CypA (B) and CypD (C) isomerase activities were assessed using the α-chymotrypsin-coupled assay. Each test compound was prepared at 10 concentrations (0.05–1000 nM). All solutions were equilibrated, and reactions conducted at 5°C. Reactions were initiated by mixing 95 μL reaction mix with 5 μL of the peptide to be cleaved and measuring OD405 nm at 6-sec intervals for 6 min. Data were fitted with Graphpad Prism 6.0 to obtain first-order rate constants. Enzyme catalyzed rate constants were calculated by subtracting the rate constant from uncatalyzed reactions (no CypA/D), and catalytic rate constants plotted as a function of inhibitor concentration to obtain IC50s. […] D. IL-2 promoter activation upon T-cell stimulation was determined using an engineered Jurkat T-cell line, which expresses betagalactosidase. Jurkat cells (1 million) were activated with PMA (10 ng/mL). […] The Y-axis values are expressed as percentage of activity. Data expressed as EC50s are representative of two independent experiments.
The formation of this trimolecular complex inhibits T cell proliferation by blocking the signaling pathway leading to IL-2 production upon T-cell stimulation. The immunosuppressive activity of STG-175 was evaluated by inhibition of the IL-2 production in Jurkat cells.

Experiment [3] deals with subgenomic Con1 (GT1b) replicon in Huh-7 cells. The note with it: 0.25, 0.5 or 1 μM, 7 passages with drug then 3 passages without; HCV RNA by RT-qPCR. The procedure: Cells were grown until they reached 90% confluence, trypsinized and re-seeded at the same cell concentration in a new 10-cm dish with the same drug concentration. […] Then drugs were removed to allow viral replication rebound to occur. At each passage, sample of cells were collected, RNA extracted according to the manufacturer's instructions and analyzed by RT-PCR for HCV RNA levels.
Fig 3 Replicon clearance, replication rebound and resistance analyses. […] Then drugs were removed to allow viral replication rebound to occur. At each passage, samples of cells were collected, RNA extracted and analyzed by RT-PCR for HCV RNA levels. B. Emergence of resistance: Con1 replicon Huh-7 cells were passaged 22 times in the absence or presence of STG-175 or selected DAAs. At each passage, sample of cells were collected, RNA extracted and analyzed by RT-PCR for HCV RNA levels. C. […] Data are expressed as number of HCV RNA copies per cell. […] Data are expressed as mean of relative light units and calculated EC50s are presented. […] E. Degree of resistance of D320E and Y321N Con1 variants: Left panel. Wild-type (WT), D320E and D320/Y321N NS5A Con1 RNA were electroporated into Huh7.5.1 cells and replication monitored over 8 days by quantifying the levels of intracellular HCV RNA. Right panel. Same as just above except that increasing concentrations of STG-175 were added at the time of the electroporation. […]

Structures are written as SMILES. Like-named read-outs stand apart in the source and are kept apart here.

As for `CC=CCC(C)C(O)C1C(=O)NC(CC)C(=O)N(C)C(CSCCCCO)C(=O)N(C)C(CC(C)(C)O)C(=O)NC(C(C)C)C(=O)N(C)C(CC(C)C)C(=O)NC(C)C(=O)NC(C)C(=O)N(C)C(CC(C)C)C(=O)N(C)C(CC(C)C)C(=O)N(C)C(C(C)C)C(=O)N1C` (centres unmarked) [STG-175], the EC50 in experiment [1] (72 h, read-out: EC50 GT3a) stood at 0.0389 µM; in experiment [1] (read-out: EC50 GT3a (Fig 2D)) it was 0.0389 µM. The IC50 in experiment [2] (Homo sapiens, Jurkat, 24 h, read-out: IC50, inhibition of IL-2 production (immunosuppressive activity)) turned out to be 0.159 µM. For the same compound, the “times less immunosuppressive activity than CsA” value in experiment [2] (Jurkat IL-2) is recorded as “approximately 1000 times”. Moreover, the “viral replication rebound after drug removal” value in experiment [3] is recorded as “no replication rebound was observed”.
